Data: patent US20130137131A1, “System and Method of Producing Volatile Organic Compounds from Fungi” (priority 2010, published 2013)

Test system: Hypoxylon sp. CI-4
Assay: Response of Hypoxylon sp. CI-4 to epigenetic modifying agents
Type: cell-based
Settings: lower concentrations seemingly ineffective
Text: The wild-type Hypoxylon sp. had previously been found as an endophyte in Persea indica growing in the Laurisilva, Tenerife, Spain (Tomsheck et al., 2010, Microb Ecol 60:903-914). The fungus, growing on potato dextrose agar (PDA), was hyphal tipped in order to obtain a genetically pure strain, CI-4. This strain was used for epigenetic modulation using a histone deacetylase inhibitor, suberoylanilide hydroxamic acid (SAHA) and a DNA methyltransferase inhibitor, 5-azacytidine (AZA) as the modulating compounds (Cichewicz, 2010, Nat Prod Rep 27:11-22). Stock solutions of these compounds were prepared in DMSO and sterile deionized water, respectively. The fungus was grown on PDA supplemented with different concentrations of the epigenetic modulators (1, 5, 10, 20, 30, 50 and 100 μM) for 15 days. The numerous variants resulting from concentrations of modulators producing the most notable cultural, biological and VOC changes were selected for future study. The strains studied here were CI-4 (wild-type), CI4-B (strain selected after a 15 day exposure of CI-4 to 50 μM SAHA, hyphal tipped, transferred to PDA and studied without subsequent exposure to SAHA), CI4-SAHA (strain CI-4 exposed to 50 μM SAHA in all studies), and CI4-AZA (strain CI-4 exposed to 100 μM AZA in all studies).
Successful attempts were made to acquire a response of Hypoxylon sp. […]

Compound	Changes in the morphology and bioactivities of the cultures (growth of strain CI-4 on PD broth with 100 μM AZA)	Changes in the morphology and bioactivities of the cultures (growth of strain CI-4 on PD broth with 50 μM SAHA)
Nc1ncn([C@@H]2O[C@H](CO)[C@@H](O)[C@H]2O)c(=O)n1 [AZA, 4-amino-1-(β-D-ribofuranosyl)-1,3,5-triazin-2(1H)-one]	the most striking changes in the morphology and bioactivities of the cultures	–
O=C(CCCCCCC(=O)Nc1ccccc1)NO [SAHA, N-hydroxy-N′-phenyl-octanediamide]	–	the most striking changes in the morphology and bioactivities of the cultures
